Holding throughout (format): cell-based
One test concerns YAP-TEAD interaction. The test can be described thus: SK-HEP-1 reporter assay (8x TEAD responsive elements driving NanoLuc luciferase). The note with it: Homo sapiens, SK-HEP1, SK-HEP-1 cells, 24 hour incubation. In outline: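 SK-HEP-1 cells carrying a stably integrated 8× TEAD-element NanoLuc reporter, seeded 24 h before dosing, were treated in duplicate with a 10-point dose series (top 30 μM final, 0.3% DMSO) for 24 h at 37°C, 5% CO2. Luciferase activity read by NanoGlo luminescence; IC50 derived from it.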
In general terms: In a reporter assay the amount or activity of a reporter protein is the signal.

The next test concerns NCI-H226 cells. The test can be described thus: Viability assay in NCI-H226 (Yap-dependent) cells, CyQUANT. The note with it: Homo sapiens, NCI-H226 YAP dependent cell line, 96 hour incubation, group symbols. How it is done:
(§1) Viability Assay in NCI-H226 (Yap-Dependent) and SW620 Yap KO (Yap Independent) Cells
(§2) The ability of YAP-TEAD inhibitors to inhibit tumor cell growth was evaluated using two different cell lines: NCI-H226, which is a YAP dependent cell line, and SW620 cells, where YAP and TAZ were knocked out using CRISPR to generate a YAP independent cell line.
(§3) For the assay, cells were treated in duplicates with the test compounds in a 10-point dose, 1:3 dilution steps, with the top concentration starting at 30 μM (final concentration in assay). After a 96 hour incubation at 37° C., 95% rH, and 5% CO2, a cell-permeant DNA-binding dye that stains only healthy cells (CyQUANT®, Promega) was added to the cells, allowing the quantification of cell viability.
(§4) Cell Media: The NCI-H226 cells were cultured in the following media: RPMI 1640, +10% FBS, +1× GlutaMAX, +10 mM HEPES, +0.5% Pen/Strep. The SW620-KO cells were cultured in the following media: DMEM/F-12, +10% FBS, +1× GlutaMAX, +10 mM HEPES, +0.5% Pen/Strep.
(§5) Reagents: The reagents used are listed below:
(§6) Cell culture: The cells were examined using an inverted microscope to check for health, cell density, etc. To dissociate adherent cells, the monolayer of cells was washed once with pre-warmed PBS. After removing the PBS, 3 ml pre-warmed Accutase was added to a F75 flask, dispersed evenly and the flask was allowed to sit in incubator for ˜4-5 minutes.
(§7) When a single cell suspension was obtained, 7 ml of prewarmed growth media was added and resuspended with the cells. The cell suspension was transferred to a sterile 15 ml conical centrifuge tube, and spun for 5 min at 300×g, RT. The supernatant was discarded and the pellet was resuspended in 10 ml of pre-warmed growth media.
(§8) The total cell count was determined, and 20 μl of the desired cell number was added to each well of a 384 well plate using a Multidrop Combi. The plates were then incubated for 24 hours at 37° C., 95% rH, and 5% CO2.
(§9) Compound treatment: 24 hours after seeding, the cells were treated with compounds.
(§10) A 1:333 dilution of compounds, diluted in DMSO, was made to get a final concentration of 0.3% DMSO per well. To transfer the compounds to the assay plate, 120 nl was shot from Labcyte low dead volume plates to the cell plates containing 20 μl media/well with the ECHO 555 liquid handling system. After treatment, the cells were fed with 20 μl fresh pre-warmed assay media using a Multidrop combi.
(§11) The assay plates were then incubated for 96 h at 37° C., 95% rH, and 5% CO2.
(§12) 96 h after treatment 30 μl of CyQuant® reagent was added to the assay plates using a Multidrop combi in the dark. The plates were then incubated for 1 hour at 37° C., 95% rH and 5% CO2. Thereafter, the assay plates were removed from the incubator and allowed to equilibrate to RT for 30 min in the dark without lid. Finally, they were measured using an EnVision microplate reader with a FITC bottom read program.

The next test relates to SW620 Yap KO cells. Briefly: Viability assay in SW620 Yap KO (Yap independent) cells, CyQUANT. The note with it: Homo sapiens, SW-620, SW620 YAP and TAZ knocked out (YAP independent), 96 hour incubation. How it is done:
as §1, §2, §3, §4, §5, §6, §7, §8, §9, §10, §11, §12

The mark [1] stands for this setting: n.d. (x) = not detectable below threshold x.
The mark [2] stands for this setting: number, or n.d. (x) = not detectable below threshold x.

Molecules are shown by their SMILES. pIC50: −log10 of the molar value.

For orientation: pIC50 means −log10 of the IC50, conventionally taken in molar units. The low end stands for a large IC50, the high end for a small IC50. Consider `Cn1cc2c3cc(C(=O)O)sc3n(-c3ccc(C(F)(F)F)cc3)c2n1` [Compound 19, 4-methyl-7-[4-(trifluoromethyl)phenyl]-9-thia-4,5,7-triazatricyclo[6.3.0.0^2,6]undeca-1(8),2,5,10-tetraene-10-carboxylic acid], for which the pIC50 with YAP-TEAD interaction (group symbols) was 8.00 to 9.00; with NCI-H226 cells, 7.00 to 9.00; in the test with SW620 Yap KO cells (setting [1]), less than 4.52.
`Cn1ccc([C@@H](CO)NC(=O)c2cc3c4cn(C)nc4n(-c4ccc(C(F)(F)F)cc4)c3s2)n1` (single isomer, unassigned) [Compound 130]: the pIC50 with YAP-TEAD interaction (group symbols) is 7.00 to 8.00; in the test on NCI-H226 cells, 7.00 to 9.00; in the test with SW620 Yap KO cells (setting [1]), less than 4.52.
Turning to `Cn1cc2c3cc(-c4noc(=O)[nH]4)sc3n(-c3ccc(C(F)(F)F)cc3)c2n1` [Compound 80, 3-{4-methyl-7-[4-(trifluoromethyl)phenyl]-9-thia-4,5,7-triazatricyclo[6.3.0.0^2,6]undeca-1(8),2,5,10-tetraen-10-yl}-4,5-dihydro-1,2,4-oxadiazol-5-one], the pIC50 in the test with YAP-TEAD interaction (setting [2]) is less than 4.52; in the test on NCI-H226 cells, 6.00 to 7.00; in the test with SW620 Yap KO cells (setting [1]), less than 4.52.
For the compound `Cn1cc2c3cc(C(=O)N4CC[C@H](O)C4)sc3n(-c3ccc(C(F)(F)F)cc3)c2n1` [Compound 69, (3S)-1-{4-methyl-7-[4-(trifluoromethyl)phenyl]-9-thia-4,5,7-triazatricyclo[6.3.0.0^2,6]undeca-1(8),2,5,10-tetraene-10-carbonyl}pyrrolidin-3-ol], the pIC50 with YAP-TEAD interaction (setting [2]) is less than 4.52; in the test with NCI-H226 cells, 7.00 to 9.00; in the test with SW620 Yap KO cells (setting [1]), less than 5.49.
As to `C[C@H](CO)NC(=O)c1cc2c3cn(C)nc3n(-c3ccc(OC(F)(F)F)cc3)c2s1` [Compound 50, N-[(2R)-1-hydroxypropan-2-yl]-4-methyl-7-[4-(trifluoromethoxy)phenyl]-9-thia-4,5,7-triazatricyclo[6.3.0.0^2,6]undeca-1(8),2,5,10-tetraene-10-carboxamide], the pIC50 with YAP-TEAD interaction (group symbols) is 5.00 to 7.00; with NCI-H226 cells, 7.00 to 9.00; in the test on SW620 Yap KO cells (setting [1]), less than 4.52.
On to `Cn1cc2c3cc(C(=O)N[C@@H](CO)c4ccccn4)sc3n(-c3ccc(C(F)F)cn3)c2n1` [Compound 120, 7-[5-(difluoromethyl)pyridin-2-yl]-N-[(1R)-2-hydroxy-1-(pyridin-2-yl)ethyl]-4-methyl-9-thia-4,5,7-triazatricyclo[6.3.0.0^2,6]undeca-1(8),2,5,10-tetraene-10-carboxamide], for which the pIC50 in the test on YAP-TEAD interaction (setting [2]) was less than 6.52; in the test with NCI-H226 cells, 6.00 to 7.00; with SW620 Yap KO cells (setting [1]), less than 4.52.
Take `Cn1cc2c3cc(C(=O)NC4(CO)CC4)sc3n(-c3ccc(C(F)(F)F)cc3)c2n1` [Compound 91, N-[1-(hydroxymethyl)cyclopropyl]-4-methyl-7-[4-(trifluoromethyl)phenyl]-9-thia-4,5,7-triazatricyclo[6.3.0.0^2,6]undeca-1(8),2,5,10-tetraene-10-carboxamide]: the figures for the pIC50 in the test with YAP-TEAD interaction (setting [2]), in the test on NCI-H226 cells and in the test with SW620 Yap KO cells (setting [1]) were less than 4.52, 7.00 to 9.00 and less than 4.52, respectively.
For the compound `CNC(=O)c1cc2c3cn(C)nc3n(-c3ccc(C(F)F)cn3)c2s1` [Compound 119, 7-[5-(difluoromethyl)pyridin-2-yl]-N,4-dimethyl-9-thia-4,5,7-triazatricyclo[6.3.0.0^2,6]undeca-1(8),2,5,10-tetraene-10-carboxamide], the results for the negative-log IC50 (pIC50) in the test on YAP-TEAD interaction (setting [2]), in the test with NCI-H226 cells and with SW620 Yap KO cells (setting [1]) were less than 4.52, 6.00 to 7.00 and less than 4.52, respectively.
In the case of `CNC(=O)c1cc2c3cn(C)nc3n(-c3ccc(C(F)F)cc3)c2s1` [Compound 100, 7-[4-(difluoromethyl)phenyl]-N,4-dimethyl-9-thia-4,5,7-triazatricyclo[6.3.0.0^2,6]undeca-1(8),2,5,10-tetraene-10-carboxamide], the pIC50 is 7.00 to 8.00 in the test with YAP-TEAD interaction (group symbols), 7.00 to 9.00 in the test on NCI-H226 cells and less than 4.52 in the test on SW620 Yap KO cells (setting [1]).
Regarding `Cn1cc2c3sc(C(=O)O)cc3n(C[C@H]3C[C@@H](C(F)(F)F)C3)c2n1` [Compound 36, 10-methyl-7-{[(1s,3s)-3-(trifluoromethyl)cyclobutyl]methyl}-3-thia-7,9,10-triazatricyclo[6.3.0.0^2,6]undeca-1(11),2(6),4,8-tetraene-4-carboxylic acid], the pIC50 in the test with YAP-TEAD interaction (group symbols) was 5.00 to 7.00; with NCI-H226 cells it was 6.00 to 7.00; with SW620 Yap KO cells (setting [1]) it was less than 4.52.
Regarding `Cn1cc2c3cc(C(=O)N[C@H](CCO)c4cncs4)sc3n(-c3ccc(C(F)(F)F)cc3)c2n1` (single isomer, unassigned) [Compound 42], the pIC50 in the test on YAP-TEAD interaction (setting [2]) was less than 5.02; in the test with NCI-H226 cells, 5.00 to 6.00; with SW620 Yap KO cells (group symbols) it was 5.00 to 6.00.
In the case of `Cn1cc2c3sc(C(=O)O)cc3n(-c3ccc(OC(F)F)cc3)c2n1` [Compound 10, 7-[4-(difluoromethoxy)phenyl]-10-methyl-3-thia-7,9,10-triazatricyclo[6.3.0.0^2,6]undeca-1(11),2(6),4,8-tetraene-4-carboxylic acid], the values for the pIC50 in the test with YAP-TEAD interaction (group symbols), in the test with NCI-H226 cells and in the test on SW620 Yap KO cells (setting [1]) were 7.00 to 8.00, 6.00 to 7.00 and less than 4.52, respectively.
On to `Cn1cc2c3cc(C(=O)N[C@@H](CO)c4ccccn4)sc3n(-c3ccc(C(F)(F)F)cc3)c2n1` [Compound 35, N-[(1R)-2-hydroxy-1-(pyridin-2-yl)ethyl]-4-methyl-7-[4-(trifluoromethyl)phenyl]-9-thia-4,5,7-triazatricyclo[6.3.0.0^2,6]undeca-1(8),2,5,10-tetraene-10-carboxamide], for which the pIC50 with YAP-TEAD interaction (group symbols) was 7.00 to 8.00; with NCI-H226 cells it was 7.00 to 9.00; with SW620 Yap KO cells (setting [1]), less than 5.49.
On to `Cn1cc2c3cc(C(=O)NCc4cccnc4)sc3n(-c3ccc(C(F)(F)F)cc3)c2n1` [Compound 45, 4-methyl-N-[(pyridin-3-yl)methyl]-7-[4-(trifluoromethyl)phenyl]-9-thia-4,5,7-triazatricyclo[6.3.0.0^2,6]undeca-1(8),2,5,10-tetraene-10-carboxamide], for which the pIC50 is less than 5.02 with YAP-TEAD interaction (setting [2]), 7.00 to 9.00 with NCI-H226 cells and 5.00 to 6.00 in the test with SW620 Yap KO cells (group symbols).
As for `Cn1cc2c3cc(C(=O)NCCN4CCOCC4)sc3n(-c3ccc(C(F)(F)F)cc3)c2n1` [Compound 65, 4-methyl-N-[2-(morpholin-4-yl)ethyl]-7-[4-(trifluoromethyl)phenyl]-9-thia-4,5,7-triazatricyclo[6.3.0.0^2,6]undeca-1(8),2,5,10-tetraene-10-carboxamide], the pIC50 is less than 6.52 in the test on YAP-TEAD interaction (setting [2]), 6.00 to 7.00 with NCI-H226 cells and less than 5.52 with SW620 Yap KO cells (setting [1]).
Regarding `Cn1cc2c3cc(C(=O)NCC(O)CO)sc3n(-c3ccc(C(F)(F)F)cc3)c2n1` (stereo not drawn) [Compound 97, N-(2,3-dihydroxypropyl)-4-methyl-7-[4-(trifluoromethyl)phenyl]-9-thia-4,5,7-triazatricyclo[6.3.0.0^2,6]undeca-1(8),2,5,10-tetraene-10-carboxamide], the values for the negative-log IC50 (pIC50) in the test with YAP-TEAD interaction (group symbols), in the test on NCI-H226 cells and in the test with SW620 Yap KO cells (setting [1]) were 8.00 to 9.00, 6.00 to 7.00 and less than 4.52, respectively.
Regarding `Cn1cc2c3sc(C(=O)O)cc3n(C[C@H]3C[C@H](C(F)(F)F)C3)c2n1` [Compound 37, 10-methyl-7-{[(1r,3r)-3-(trifluoromethyl)cyclobutyl]methyl}-3-thia-7,9,10-triazatricyclo[6.3.0.0^2,6]undeca-1(11),2(6),4,8-tetraene-4-carboxylic acid], the pIC50 was 5.00 to 7.00 with YAP-TEAD interaction (group symbols), 5.00 to 6.00 in the test with NCI-H226 cells and less than 4.52 in the test on SW620 Yap KO cells (setting [1]).
Take `CNC(=O)c1cc2c(s1)c1c(ncn1C)n2-c1ccc(C(F)(F)F)cc1` [Compound 21, N,3-dimethyl-7-[4-(trifluoromethyl)phenyl]-11-thia-3,5,7-triazatricyclo[6.3.0.0^2,6]undeca-1(8),2(6),4,9-tetraene-10-carboxamide]: the pIC50 with YAP-TEAD interaction (group symbols) was 5.00 to 7.00; with NCI-H226 cells, 6.00 to 7.00; with SW620 Yap KO cells (group symbols), 5.00 to 6.00.

The record behind these values is patent US20260159525A1, “TRICYCLIC HETEROCYCLES” (Merck Patent GmbH, priority 2021, published 2026).
